The results in this text go back to patent publication US10689354B2, “Aminoazole derivative” (Teijin Pharma Limited, priority 2015, dated 2020).

Each structure is given as a SMILES string.

The target in the test is T1, androgen receptor (AR-LBD) (Rattus norvegicus, UniProt P15207).
T1 construct: 5 μL of 2×AR-LBD/Fluoromone AL Red Complex contained in the kit; purchased Invitrogen
T1 sequence (P15207 651-882 limits assumed): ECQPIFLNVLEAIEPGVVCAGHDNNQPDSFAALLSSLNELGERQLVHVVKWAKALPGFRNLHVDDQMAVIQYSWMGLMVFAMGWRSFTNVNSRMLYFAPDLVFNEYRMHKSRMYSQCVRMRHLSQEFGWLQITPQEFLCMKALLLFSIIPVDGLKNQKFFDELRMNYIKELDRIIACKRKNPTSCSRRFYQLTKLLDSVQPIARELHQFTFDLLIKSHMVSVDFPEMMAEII
Kind of test: Evaluation of androgen receptor affinity (PolarScreen Androgen Receptor Competitor Assay Kit, Red; fluorescence polarization). The note with it: 22° C. for 5 hours, relative to binding rate of 1 μM DHT, read-out: AR affinity (pEC50) (converted). In outline: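 Fluorescence polarization competition assay: compound was incubated in duplicate with the kit's AR-LBD/Fluoromone AL Red complex for 5 h at 22 °C. Binding was expressed relative to 1 μM DHT, and pEC50 was derived by 4-parameter fit.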
Consider `Cc1sc(N(CCc2cccc3ccccc23)c2ccc(C#N)cc2)nc1C(=O)NS(C)(=O)=O` [Compound 441, 2-[4-cyano-N-[2-(1-naphthyl)ethyl]anilino]-5-methyl-N-methylsulfonyl-thiazole-4-carboxamide], for which the EC50 is 251 nM. In the case of `Cc1sc(N(CC[C@@H]2CC[C@@H](O)C2)c2ccc(C#N)cc2)nc1C(=O)NS(C)(=O)=O` (racemic) [Compound 459, 2-[4-cyano-N-[2-[trans-3-hydroxycyclopentyl]ethyl]anilino]-5-methyl-N-methylsulfonyl-thiazole-4-carboxamide], the EC50 is 1260 nM.

Consider `Cc1sc(N(Cc2ccccc2)c2ccc(C#N)cc2)nc1C(=O)NS(=O)(=O)/C=C/c1ccccc1` [Compound 385, 2-(N-benzyl-4-cyano-anilino)-5-methyl-N-[(E)-styryl]sulfonyl-thiazole-4-carboxamide], for which the EC50 was 794 nM. Turning to `Cc1sc(N(CC(=O)N(C)C2CCCCC2)c2ccc(C#N)cc2)nc1C(=O)NS(C)(=O)=O` [Compound 424, 2-(4-cyano-N-[2-[cyclohexyl(methyl)amino]-2-oxo-ethyl]anilino)-5-methyl-N-methylsulfonyl-thiazole-4-carboxamide], the EC50 was greater than 2000 nM. The result for `Cc1sc(N(CCC(O)CO)Cc2ccccc2)nc1C(=O)NS(C)(=O)=O` (stereo not shown) [Compound 712, 2-[benzyl(3,4-dihydroxybutyl)amino]-5-methyl-N-methylsulfonyl-thiazole-4-carboxamide] reads greater than 2000 nM.

Regarding `Cc1sc(N(c2ccc(C#N)cc2)[C@@H](CO)c2ccccc2)nc1C(=O)NS(C)(=O)=O` [Compound 483, 2-(4-cyano-N-[(1R)-2-hydroxy-1-phenyl-ethyl]anilino)-5-methyl-N-methylsulfonyl-thiazole-4-carboxamide], the EC50 is greater than 2000 nM. In the case of `Cc1sc(N(Cc2ccc(CO)cc2)c2ccc(C#N)cc2)nc1C(=O)NS(C)(=O)=O` [Compound 356, 2-[4-cyano-N-[[4-(hydroxymethyl)phenyl]methyl]anilino]-5-methyl-N-methylsulfonyl-thiazole-4-carboxamide], the EC50 was 631 nM. Under `Cc1sc(N(Cc2ccc(OCC(=O)N3CCOCC3)cc2)c2ccc(C#N)cc2)nc1C(=O)NS(C)(=O)=O` [Compound 573, 2-[4-cyano-N-[[4-(2-morpholino-2-oxo-ethoxy)phenyl]methyl]anilino]-5-methyl-N-methylsulfonyl-thiazole-4-carboxamide] stands 1260 nM; under `Cc1sc(N(Cc2ccccc2)Cc2ccccn2)nc1C(=O)NS(C)(=O)=O` [Example 295, 2-[benzyl(2-pyridylmethyl)amino]-5-methyl-N-methylsulfonyl-thiazole-4-carboxamide], greater than 2000 nM; under `Cc1sc(N(Cc2ccccc2)c2ccc(OCC(=O)N(C)C)cc2)nc1C(=O)NS(C)(=O)=O` [Example 214, 2-[N-benzyl-4-[2-(dimethylamino)-2-oxo-ethoxy]anilino]-5-methyl-N-methylsulfonyl-thiazole-4-carboxamide], greater than 2000 nM. Regarding `Cc1sc(N(Cc2nc3ccccc3[nH]2)c2ccc(C#N)cc2)nc1C(=O)NS(C)(=O)=O` [Compound 460, 2-[N-(1H-benzimidazol-2-ylmethyl)-4-cyano-anilino]-5-methyl-N-methylsulfonyl-thiazole-4-carboxamide], the EC50 was 1260 nM.

As for `COCCOc1ccc(N(Cc2ccccc2)c2nc(C(=O)NS(C)(=O)=O)c(C)s2)cc1` [Compound 22, 2-[N-benzyl-4-(2-methoxyethoxy)anilino]-5-methyl-N-methylsulfonyl-thiazole-4-carboxamide], the EC50 is 501 nM.

In the case of `Cc1sc(N(Cc2ccccc2)c2ccccc2C(F)(F)F)nc1C(=O)NS(C)(=O)=O` [Example 228, 2-[N-benzyl-2-(trifluoromethyl)anilino]-5-methyl-N-methylsulfonyl-thiazole-4-carboxamide], the EC50 is greater than 2000 nM. Turning to `Cc1sc(N(C[C@H]2CC[C@H](O)CC2)c2ccc(C#N)cc2)nc1C(=O)NS(C)(=O)=O` [Compound 354, 2-[4-cyano-N-[(trans-4-hydroxycyclohexyl)methyl]anilino]-5-methyl-N-methylsulfonyl-thiazole-4-carboxamide], the EC50 was greater than 2000 nM.

With `Cc1sc(N(CCc2cccc(S(C)(=O)=O)c2)Cc2ccccc2)nc1C(=O)NS(C)(=O)=O` [Compound 331, 2-[benzyl-[2-(3-methylsulfonylphenyl)ethyl]amino]-5-methyl-N-methylsulfonyl-thiazole-4-carboxamide], the EC50 was greater than 2000 nM. Under `Cc1nc(CN(c2ccc(C#N)cc2)c2nc(C(=O)NS(C)(=O)=O)c(C)o2)cs1` [Compound 619, 2-[4-cyano-N-[(2-methylthiazol-4-yl)methyl]anilino]-5-methyl-N-methylsulfonyl-oxazole-4-carboxamide] stands greater than 2000 nM. On to `Cc1sc(N(CCn2cccc2)Cc2ccccc2)nc1C(=O)NS(C)(=O)=O` [Example 309, 2-[benzyl(2-pyrrol-1-ylethyl)amino]-5-methyl-N-methylsulfonyl-thiazole-4-carboxamide], for which the EC50 was greater than 2000 nM. Take `Cc1sc(N(CCc2ccc(Cl)cc2)CC2CCCCC2)nc1C(=O)NS(=O)(=O)C(F)(F)F` [Compound 700, 2-[2-(4-chlorophenyl)ethyl-(cyclohexylmethyl)amino]-5-methyl-N-(trifluoromethylsulfonyl)thiazole-4-carboxamide]: the EC50 is greater than 2000 nM.

Regarding `COc1ccccc1CN(c1ccc(C#N)cc1)c1nc(C(=O)NS(C)(=O)=O)c(Br)s1` [Example 249, 5-bromo-2-[4-cyano-N-[(2-methoxyphenyl)methyl]anilino]-N-methylsulfonyl-thiazole-4-carboxamide], the EC50 was 100 nM. Consider `Cc1sc(N(CCc2ccc(C(N)=O)cc2)Cc2ccccc2)nc1C(=O)NS(C)(=O)=O` [Compound 737, 2-[benzyl-[2-(4-carbamoylphenyl)ethyl]amino]-5-methyl-N-methylsulfonyl-thiazole-4-carboxamide], for which the EC50 is greater than 2000 nM.

Consider `Cc1sc(N(Cc2cc(C(F)(F)F)ccc2C(F)(F)F)c2ccc(C#N)cc2)nc1C(=O)NS(C)(=O)=O` [Compound 415, 2-[N-[[2,5-bis(trifluoromethyl)phenyl]methyl]-4-cyano-anilino]-5-methyl-N-methylsulfonyl-thiazole-4-carboxamide], for which the EC50 was greater than 2000 nM. For `Cc1sc(N(Cc2ccccc2)c2cccnc2)nc1C(=O)NS(C)(=O)=O` [Compound 49, 2-[benzyl(3-pyridyl)amino]-5-methyl-N-methylsulfonyl-thiazole-4-carboxamide], the EC50 is greater than 2000 nM.

For `Cc1ccccc1CN(c1ccc(C#N)cc1)c1nc(C(=O)NS(C)(=O)=O)c(Br)s1` [Example 264, 5-bromo-2-[4-cyano-N-(o-tolylmethyl)anilino]-N-methylsulfonyl-thiazole-4-carboxamide], the EC50 is 158 nM.

On to `Cc1ncsc1CCN(Cc1ccccc1)c1nc(C(=O)NS(C)(=O)=O)c(C)s1` [Example 311, 2-[benzyl-[2-(4-methylthiazol-5-yl)ethyl]amino]-5-methyl-N-methylsulfonyl-thiazole-4-carboxamide], for which the EC50 was greater than 2000 nM.

`Cc1sc(N(Cc2cscn2)c2ccc(C#N)cc2)nc1C(=O)NS(C)(=O)=O` [Compound 380, 2-[4-cyano-N-(thiazol-4-ylmethyl)anilino]-5-methyl-N-methylsulfonyl-thiazole-4-carboxamide]: the EC50 was 794 nM.
